Data reported in patent publication US10137112B2, “Methods for treating hyperuricemia in patients with gout using halofenate or halofenic acid and a second urate-lowering agent” (CymaBay Therapeutics, Inc., priority 2011, dated 2018).
Where “and” joins values, the source holds several entries; their conditions need not be identical. Equal entries are not always repeated.

Experiments:
serum uric acid = conditions: monotherapy at 40, 80, 120, 160 and 240 mg/day; cited from earlier work
serum uric acid (sUA) [1] = test system: serum uric acid (sUA)
Procedure: A randomized, double-blind, placebo-controlled study to evaluate the safety and efficacy of daily oral doses of between 400 to 600 mg of arhalofenate (i.e., (−)-halofenate) in combination with 300 mg oral doses of allopurinol was conducted in gout patients with inadequate hypouricemic (uric acid lowering) response to allopurinol alone.
Patients who met the final eligibility criteria were randomized to each of 3 study arms in the following manner (1:1:1):
Arhalofenate 400 mg (plus allopurinol 300 mg)
Arhalofenate 600 mg (plus allopurinol 300 mg)
Placebo (plus allopurinol 300 mg)
The serum uric acid (sUA) levels were assessed at Day 1, prior to giving blinded study medication, and at Visits Week 2, 3, and 4.
Patients in all treatment groups also took allopurinol 300 mg once daily orally starting at Week −3 during the run-in and continuing through Week 4.
The randomized treatment regimens were as follows (Day 1 through Week 4):
Treatment Group #1: Arhalofenate 400 mg (plus allopurinol)
Treatment Group #2: Arhalofenate 600 mg (plus allopurinol)
Treatment Group #3: Placebo (plus allopurinol)
The effects of each of the three treatment groups were assessed as the change in sUA from baseline to the end of the treatment period for the following endpoints:
Percent change in sUA from baseline at Week 4 of treatment
The proportion of patients achieving a sUA<6 mg/dL at week 4 of treatment
The proportion of patients achieving a sUA<5 mg/dL at week 4 of treatment
The proportion of patients achieving a sUA<4 mg/dL at week 4 of treatment

serum uric acid (sUA) [2] = assay: Example 2 clinical trial: arhalofenate 400 mg increasing to 600 mg in combination with febuxostat 80 mg in gout patients with hyperuricemia, serum uric acid; type: in vivo, human; conditions: Day 8, after 1 week febuxostat 80 mg daily
Procedure: This study evaluated the efficacy, safety and tolerability of arhalofenate at 400 mg increasing to 600 mg daily orally in combination with febuxostat 80 mg daily orally in gout patients (per criteria of the American Rheumatism Association) with hyperuricemia.
In addition to colchicine 0.6 mg daily for flare prophylaxis, all patients received febuxostat and arhalofenate in the following order during the Treatment Phase: • Days 1 through 7: febuxostat 80 mg orally once daily (febuxostat only period) • Days 8 through 21: febuxostat 80 mg plus arhalofenate 400 mg orally once daily (febuxostat plus arhalofenate 400 mg period) • Days 22 through 35: febuxostat 80 mg plus arhalofenate 600 mg orally once daily (febuxostat plus arhalofenate 600 mg period)
The sUA levels were assessed before the start of each dosing period (Day 1, Day 8, Day 22) and at the end of the Treatment Phase (Day 36). Serum urate levels were also measured on the last day of each dosing period (Day 7, Day 21, and Day 35) at 4 different time points; pre-dose (fasting), 2 hours post-dose, 6 hours post-dose, and 10 hours post-dose.
Dose/Route/Regimen • Colchicine: 0.6 mg/oral/daily from Day −16 through Day 49 • Febuxostat: 80 mg/oral/daily from Day 1 through Day 35 • Arhalofenate: 400 mg/oral daily from Day 8 through Day 21; 600 mg/oral/daily from Day 22 through Day 35
Duration of Treatment • Phase 1: Screening Phase: 1 to 4 weeks • Phase 2: Run-in/Stabilization Phase: ≥2 weeks • Phase 3: Treatment Phase: 5 weeks • Phase 4: Follow-up Phase: 2 weeks

[3] = placebo + allopurinol 300 mg once daily oral, Week 4 (LOCF), N = 31
[4] = placebo + allopurinol 300 mg once daily oral, Week 4, N = 31
[5] = placebo + allopurinol 300 mg, Week 4

O=c1[nH]cnc2c(CN3C[C@H](CO)[C@@H](O)C3)c[nH]c12 [Ulodesine, 7-(((3R,4R)-3-hydroxy-4-(hydroxymethyl)pyrrolidin-1-yl)methyl)-3H-pyrrolo[3,2-d]pyrimidin-4(5H)-one]
effect on serum uric acid in gout patients (serum uric acid): rapidly and significantly reduced serum uric acid

O=c1[nH]cnc2[nH]ncc12 [Placebo + Allopurinol, 1,5-dihydro-4H-pyrazolo [3,4-d]pyrimidin-4-one]
% Change from Baseline in Uric Acid, Mean (serum uric acid (sUA) [1]; [3]): −9.5%
% Change from Baseline in Uric Acid, Median (serum uric acid (sUA) [1]; [3]): −8.7%
Uric Acid at End of Treatment (LOCF), Mean (serum uric acid (sUA) [1]; [4]): 6.3 mg/dL
Uric Acid at End of Treatment (LOCF), Median (serum uric acid (sUA) [1]; [4]): 6.2 mg/dL
patients with sUA<4.0 mg/dL by End of Treatment (serum uric acid (sUA) [1]; [5]): 1 patients
patients with sUA<5.0 mg/dL by End of Treatment (serum uric acid (sUA) [1]; [5]): 4 patients
patients with sUA<6.0 mg/dL by End of Treatment (serum uric acid (sUA) [1]; [5]): 11 patients

Cc1nc(-c2ccc(OCC(C)C)c(C#N)c2)sc1C(=O)O [febuxostat, 2-(3-cyano-4-isobutoxyphenyl)-4-methyl-1,3-thiazole-5-carboxylic acid]
mean absolute reduction in sUA from Day 1 (serum uric acid (sUA) [2]): -4.3 mg/dL
mean percent reduction in sUA from Day 1 (serum uric acid (sUA) [2]): −47.8%
Patients reached target: No, sUA < 3.0 mg/dL (serum uric acid (sUA) [2]; 11 patients): 11 patients
Patients reached target: No, sUA < 4.0 mg/dL (serum uric acid (sUA) [2]; 11 patients): 10 patients
Patients reached target: No, sUA < 5.0 mg/dL (serum uric acid (sUA) [2]; 11 patients): 5 patients
Patients reached target: No, sUA < 6.0 mg/dL (serum uric acid (sUA) [2]; 11 patients): 0 patients
Patients reached target: Yes, sUA < 3.0 mg/dL (serum uric acid (sUA) [2]; 11 patients): 0 patients
Patients reached target: Yes, sUA < 4.0 mg/dL (serum uric acid (sUA) [2]; 11 patients): 1 patients
Patients reached target: Yes, sUA < 5.0 mg/dL (serum uric acid (sUA) [2]; 11 patients): 6 patients
Patients reached target: Yes, sUA < 6.0 mg/dL (serum uric acid (sUA) [2]; 11 patients): 11 patients
Proportion of patients reached target, sUA < 3.0 mg/dL (serum uric acid (sUA) [2]; 11 patients): 0.00%
Proportion of patients reached target, sUA < 4.0 mg/dL (serum uric acid (sUA) [2]; 11 patients): 9% and 9.09%
Proportion of patients reached target, sUA < 5.0 mg/dL (serum uric acid (sUA) [2]; 11 patients): 55% and 54.55%
Proportion of patients reached target, sUA < 6.0 mg/dL (serum uric acid (sUA) [2]; 11 patients): 100%
